According to patent US8114904B2, “Luminescence quenchers and fluorogenic probes for detection of reactive species” (Versitech Limited & Morningside Ventures Limited, priority 2008, dated 2012):

Tests used:
[1] = Emission spectra of the probe itself; assay type: physicochemical; conditions: Hitachi F2500, 700 V
Description: (§1) Compound 10 obtained in Example 4 was dissolved in DMF to a concentration of 10 mM, and then the solution was diluted to 10 μM by 0.1 M phosphate buffer (pH 7.4). The fluorescence spectrum of the 10 μM solution of Compound 10 was measured using a Hitachi F2500 fluorescence spectrometer and the photomultiplier voltage was 700 V. The slit width was 2.5 nm for both excitation and emission. The measurement was carried out at an excitation wavelength of 520 nm. The results shown in FIG. 1 indicate that Compound 10 itself is non-fluorescent.
(§2) Compound 12 obtained in Example 5 was dissolved in DMF to a concentration of 1 mM, and then the solution was diluted to 1 μM by 0.1 M phosphate buffer (pH 7.4). The fluorescence spectrum of the 1 μM solution of Compound 12 was measured using a Hitachi F2500 fluorescence spectrometer and the photomultiplier voltage was 700 V. The slit width was 2.5 nm for both excitation and emission. The measurement was carried out at an excitation wavelength of 515 nm. The results shown in FIG. 4 indicate that Compound 12 itself is non-fluorescent.
as §2, with “Compound 14” for “Compound 12”, “Example 6” for “Example 5”, “FIG. 6” for “FIG. 4”
as §1, with “Compound 30” for “Compound 10”, “Example 7” for “Example 4”, “Hitachi F7000” for “Hitachi F2500”, “was 900” for “was 700”, “nm.” for “nm. The results shown in FIG. 1 indicate that Compound 10 itself is non-fluorescent.”

[2] = Detection of peroxynitrite: fluorescence spectra after addition of peroxynitrite
Description: Compound 10 obtained in Example 4 was dissolved in DMF to a concentration of 10 mM, and then the solution was diluted to 10μM by 0.1 M potassium phosphate buffer (pH 7.4). Peroxynitrite solution in 0.1 M NaOH was prepared by the method of Keith and Powell (Keith, W. G. & Powell, R. E.; Kinetics of decomposition of peroxynitrous acid; J. Chem. Soc. A, 1969, 1, 90), and its concentration in the stock solutions used was estimated by using an extinction coefficient of 1670 cm^−1 (mol/L)^−1 at 302 nm (Hughes and Nicklin; The chemistry of pernitrites. Part I. Kinetics of decomposition of pernitrious acid; J. Chem. Soc. A, 1968, 2, 450-452). Peroxynitrite stock solution was added into the solution of Compound 10 to provide various final concentrations, like 0, 2, 6, 10, 20, 30, 50 100, and 200 μM. Fluorescence spectra of the solutions were measured after 5 minutes under the same conditions as mentioned above.
Compound 12 obtained in Example 5 was dissolved in DMF to a concentration of 1 mM, and then the solution was diluted to 1 μM by 0.1 M potassium phosphate buffer (pH 7.4). Peroxynitrite solution in 0.1 M NaOH was prepared by the method of Keith and Powell (Keith, W. G. & Powell, R. E.; Kinetics of decomposition of peroxynitrous acid; J. Chem. Soc. A, 1969, 1, 90), and its concentration in the stock solutions used was estimated by using an extinction coefficient of 1670 cm^−1 (mol/L)^−1 at 302 nm (Hughes and Nicklin; The chemistry of pernitrites. Part I. Kinetics of decomposition of pernitrious acid; J. Chem. Soc. A, 1968, 2, 450-452). Peroxynitrite stock solution was added into the solution of Compound 12 to provide various final concentrations, like 0, 1, 2, 3, 4, 5, 6, and 7 μM. Fluorescence spectra of the solutions were measured after 5 minutes under the same conditions as mentioned above.
Compound 30 obtained in Example 7 was dissolved in DMF to a concentration of 10 mM, and then the solution was diluted to 10 μM by 0.1 M potassium phosphate buffer (pH 7.4). Peroxynitrite solution in 0.1 M NaOH was prepared by the method of Keith and Powell (Keith, W. G. & Powell, R. E.; Kinetics of decomposition of peroxynitrous acid; J. Chem. Soc. A, 1969, 1, 90), and its concentration in the stock solutions used was estimated by using an extinction coefficient of 1670 cm^−1 (mol/L)^−1 at 302 nm (Hughes and Nicklin; The chemistry of pernitrites. Part I. Kinetics of decomposition of pernitrious acid; J. Chem. Soc. A, 1968, 2, 450-452). Peroxynitrite stock solution was added into the solution of Compound 30 to provide various final concentrations. Fluorescence spectra of the solutions were measured after 5 minutes under the same conditions as mentioned above.

[3] = system: Murine J744.1 macrophages; assay: Cell assay: detection of peroxynitrite in living cells by fluorescent microscopy; assay type: cell-based
Description: (§3) Murine J744.1 macrophages (ATCC, USA) were used to investigate the potential of Compound 22 (acetate form of Compound 10) for the detection of peroxynitrite in living cells. J744.1 macrophages were cultured in Dulbecco's Modified Eagle's Medium (DMEM) (Gibco) containing 10% heat-inactivated fetal bovine serum (Gibco) supplemented with 100 U/ml of penicillin and 100 μg/ml streptomycin at 37° C., 5% CO2. They were subcultured by scraping and seeded on six-well plates according to manufacture's instruction. The growth medium was changed every two to three days. Cells were grown to confluence prior to experiment. Murine J744.1 macrophages were incubated with Compound 22 (20 μM) for 1 hr and then washed three times with PBS buffer.
as §3, with “12 and 12a” for “22 (acetate form of Compound 10)”, “12 or 12a” for “22”, “buffer. […] The fluorescence was induced after treatment with LPS (lipopolysaccharide, 1 μg/ml) for 4 hrs (FIG. 9D and FIG. 10B).” for “buffer.”

## CN(c1ccc(CCC(=O)C(F)(F)F)cc1)c1cc2c(cc1Cl)C1(OC(=O)c3ccccc31)c1cc(Cl)c(O)cc1O2 (stereo not shown) [Compound 10]
[1]; 10 μM, 0.1 M phosphate buffer pH 7.4, excitation 520 nm
  fluorescence of the probe itself: non-fluorescent
[2]; 10 μM probe, 0.1 M potassium phosphate buffer pH 7.4
  fluorescence intensity at 541 nm with increasing concentration of peroxynitrite: increases linearly
[2]; 10 μM probe, 0.1 M potassium phosphate buffer pH 7.4, measured after 5 minutes, excitation 520 nm
  fluorescence intensity after the addition of peroxynitrite: increase significantly

## CN(c1ccc(O)cc1)c1ccc2c(c1)Oc1cc(O)ccc1C21OC(=O)c2ccccc21 (stereo not shown) [Compound 12]
[1]; 1 μM, 0.1 M phosphate buffer pH 7.4, excitation 515 nm
  fluorescence of the probe itself: non-fluorescent
[3]; 20 μM probe 1 hr, LPS 1 μg/ml for 4 hrs
  fluorescence after treatment with LPS: induced
[3]; J744.1 macrophages
  subcellular localization: may selectively localize in mitochondrials
[3]; J744.1 macrophages incubated with 20 μM probe for 1 hr
  fluorescence observed in the absence of stimulants: very weak fluorescence
[3]; LPS-stimulated J744.1 macrophages, 20 μM
  colocalization with mitochondrial dye MitoTracker Red CMXRos: colocalized
[2]; 1 μM probe, 0.1 M potassium phosphate buffer pH 7.4, data not shown
  fluorescence intensity at 535 nm with increasing concentration of peroxynitrite: increases linearly
[2]; 1 μM probe, peroxynitrite 0-7 μM, 0.1 M potassium phosphate buffer pH 7.4, after 5 minutes, excitation 515 nm
  fluorescence intensity after the addition of peroxynitrite: increase significantly
